Measurements from patent publication US20190367516A1 (Bayer Pharma Aktiengesellschaft, priority 2015, published 2019).
Read-outs that look alike come from different tables or passages of the source.

How the values were obtained:
[1] = target: T1, human M2 receptor (Homo sapiens, UniProt P08172); assay type: cell-based; details: α >1 = positive cooperativity
T1 sequence (P08172 1-466): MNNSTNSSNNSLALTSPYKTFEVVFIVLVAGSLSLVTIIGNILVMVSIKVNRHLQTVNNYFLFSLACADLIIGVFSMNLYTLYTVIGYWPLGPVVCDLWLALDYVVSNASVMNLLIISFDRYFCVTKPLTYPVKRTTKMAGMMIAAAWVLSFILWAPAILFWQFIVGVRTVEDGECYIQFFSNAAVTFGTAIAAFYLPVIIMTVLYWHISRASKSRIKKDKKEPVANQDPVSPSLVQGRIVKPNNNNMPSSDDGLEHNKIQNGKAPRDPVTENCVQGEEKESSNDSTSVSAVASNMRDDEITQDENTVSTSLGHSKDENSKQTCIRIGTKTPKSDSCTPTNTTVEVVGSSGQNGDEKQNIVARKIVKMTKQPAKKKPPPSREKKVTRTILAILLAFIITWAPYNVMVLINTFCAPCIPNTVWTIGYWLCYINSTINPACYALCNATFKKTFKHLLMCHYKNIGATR
Method: B-1.2. Determination of Positive Cooperativity (α Factor)
In contrast to the EC50 determination of the test substances (see B-1.1), however, this is not done using one acetylcholine concentration; instead, every concentration of the test substance is combined with an acetylcholine 8-point dose-response curve. […] The shift in the acetylcholine dose-response curve in the presence of increasing concentrations of the test substance is analysed and quantified by means of GraphPad PRISM (Allosteric EC50 shift). […] Positive cooperativity is the hallmark of a positive allosteric modulator. […] The greater the magnitude of the α value, the greater the extent of cooperativity between orthosteric and allosteric.

[2] = target: T1, human M2 receptor; details: for Efficiency: boosting of the acetylcholine effect at EC20 acetylcholine concentration
[3] = shift of acetylcholine dose-response curve (Allosteric EC50 shift)
[4] = Receptor activity EC50, allosteric potency at EC20 acetylcholine, M2-GIRK1/4 reporter cells, in some cases mean of two or more determinations
[5] = read-out: Efficiency, boosting of the acetylcholine effect at EC20 acetylcholine concentration, M2-GIRK1/4 reporter cells
[6] = shift in the acetylcholine dose-response curve (Allosteric EC50 shift, GraphPad PRISM)
[7] = Receptor activity EC50, M2-GIRK1/4 activation test, acetylcholine at EC20, allosteric potency, in some cases mean values from two or more determinations

For C[C@@H]1CN(c2ccc3c(=O)c(C(=O)NC(C)(C)CC(F)(F)F)cn(-c4c(F)cc(F)cc4F)c3n2)C(=O)N1 [Example 457, 7-[(4R)-4-Methyl-2-oxoimidazolidin-1-yl]-4-oxo-N-(4,4,4-trifluoro-2-methylbutan-2-yl)-1-(2,4,6-trifluorophenyl)-1,4-dihydro-1,8-naphthyridine-3-carboxamide], the “Cooperativity (alpha factor)” value [1, 3] was 36, the EC50 [2, 4] was 4 nM and the Emax [2, 5] was 82%.

With O=C(N[C@@H](C1CC1)C(F)(F)F)c1cn(-c2c(F)cc(F)cc2F)c2nc(N3CCCN(CCO)C3=O)ccc2c1=O [Example 364, N-[(1 S)-1-Cyclopropyl-2,2,2-trifluoroethyl]-7-[3-(2-hydroxyethyl)-2-oxotetrahydropyrimidin-1(2H)-yl]-4-oxo-1-(2,4,6-trifluorophenyl)-1,4-dihydro-1,8-naphthyridine-3-carboxamide] the “Cooperativity (alpha factor)” value [1, 6] was 25 and the EC50 [2, 7] was 16 nM.

CC(C)(CC(F)(F)F)NC(=O)c1cn(-c2c(F)cc(F)cc2F)c2nc(N3CC(O)C4(CC4)C3)ccc2c1=O (racemic) [Example 571, 7-[7-Hydroxy-5-azaspiro[2.4]hept-5-yl]-4-oxo-N-(4,4,4-trifluoro-2-methylbutan-2-yl)-1-(2,4,6-trifluorophenyl)-1,4-dihydro-1,8-naphthyridine-3-carboxamide] was tested, and the “Cooperativity (alpha factor)” value [1, 3] was 33 and the Efficiency ([2]; M2-GIRK1/4 reporter cells) was 94.0%.

For CC(C)(C)[C@H](NC(=O)c1cn(-c2c(F)cc(F)cc2F)c2nc(N3C[C@@H](O)[C@H](O)C3)ccc2c1=O)C(F)(F)F [Example 369, 7-[(3R,4R)-3,4-Dihydroxypyrrolidin-1-yl]-4-oxo-N-[(2S)-1,1,1-trifluoro-3,3-dimethylbutan-2-yl]-1-(2,4,6-trifluorophenyl)-1,4-dihydro-1,8-naphthyridine-3-carboxamide], the “Cooperativity (alpha factor)” value [1, 6] was 39, the EC50 [2, 7] was 8 nM and the Emax ([2]; read-out: Efficiency) was 95%.

With CC[C@@H](NC(=O)c1cn(-c2ccc(F)cc2F)c2nc(N3CC4CC4(O)C3)ccc2c1=O)C(F)(F)F (single isomer, unassigned) [Example 315] the “Cooperativity (alpha factor)” value [1, 6] was 25 and the EC50 [2, 7] was 38 nM.

For CC(C)(NC(=O)c1cn(-c2ccc(F)cc2F)c2nc(N3CC[C@@H](OC(F)F)C3)ccc2c1=O)c1c(F)cccc1F [Example 188, 7-[(3R)-3-(Difluoromethoxy)pyrrolidin-1-yl]-1-(2,4-difluorophenyl)-N-[2-(2,6-difluorophenyl)propan-2-yl]-4-oxo-1,4-dihydro-1,8-naphthyridine-3-carboxamide], the “Cooperativity (alpha factor)” value [1, 6] was 9 and the EC50 [2, 7] was 113 nM.

CC[C@H](NC(=O)c1cn(-c2c(F)cc(F)cc2Cl)c2nc(N3CCC(C)C3=O)ccc2c1=O)C(F)(F)F (single isomer, unassigned) [Example 424] was tested, and the “Cooperativity (alpha factor)” value [1, 3] was 15, the EC50 [2, 4] was 7 nM and the Efficiency ([2]; M2-GIRK1/4 reporter cells) was 99.0%.

CCC(NC(=O)c1cn(-c2ccc(F)cc2F)c2nc(N3C[C@@H](O)CC3=O)ccc2c1=O)C(F)(F)F (some centres unmarked) [Example 176] was tested, and the “Cooperativity (alpha factor)” value [1, 6] was 28, the EC50 [2, 7] was 95 nM and the Emax ([2]; read-out: Efficiency) was 94.1%.

In the case of CCC(NC(=O)c1cn(-c2ccccc2F)c2nc(N(C)C)ccc2c1=O)C(F)(F)F (racemic) [Example 204, rac-7-(Dimethylamino)-1-(2-fluorophenyl)-4-oxo-N-[1,1,1-trifluorobutan-2-yl]-1,4-dihydro-1,8-naphthyridine-3-carboxamide], the “Cooperativity (alpha factor)” value [1, 6] is reported as 8 and the EC50 [2, 7] is reported as 34 nM.

In the case of CCC1CCN(c2ccc3c(=O)c(C(=O)N[C@@H](C4CC4)C(F)(F)F)cn(-c4c(F)cc(F)cc4F)c3n2)C(=O)N1 (mixture of isomers) [Example 446, N-[(1 S)-1-Cyclopropyl-2,2,2-trifluoroethyl]-7-[4-ethyl-2-oxotetrahydropyrimidin-1(2H)-yl]-4-oxo-1-(2,4,6-trifluorophenyl)-1,4-dihydro-1,8-naphthyridine-3-carboxamide], the “Cooperativity (alpha factor)” value [1, 3] is reported as 21, the EC50 [2, 4] is reported as 50 nM and the Emax [2, 5] is reported as 85%.

CCC(NC(=O)c1cn(-c2ccc(F)cc2F)c2nc(N3CCC(O)C3)ccc2c1=O)C(F)(F)F (stereo in doubt) [Example 218, 1-(2,4-Difluorophenyl)-7-[3-hydroxypyrrolidin-1-yl]-4-oxo-N-[(2S)-1,1,1-trifluorobutan-2-yl]-1,4-dihydro-1,8-naphthyridine-3-carboxamide] was tested, and the “Cooperativity (alpha factor)” value [1, 6] was 33 and the EC50 [2, 7] was 153 nM.

For CCC(NC(=O)c1cn(-c2ccc(F)cc2F)c2nc(N3C[C@@H](O)CC3=O)ccc2c1=O)C(F)(F)C(F)(F)F (single isomer, unassigned) [Example 557], the “Cooperativity (alpha factor)” value [1, 3] was 44, the EC50 [2, 4] was 11 nM and the Emax [2, 5] was 100%.

With O=C(NC(c1ccccc1Cl)C(F)(F)F)c1cn(-c2c(F)cc(F)cc2F)c2nc(N3C[C@@H](O)[C@H](O)C3)ccc2c1=O (single isomer, unassigned) [Example 562] the “Cooperativity (alpha factor)” value [1, 3] was 40, the EC50 [2, 4] was 10 nM and the Efficiency ([2]; M2-GIRK1/4 reporter cells) was 100.0%.

For CCC(COC(F)(F)F)NC(=O)c1cn(-c2c(F)cc(F)cc2F)c2nc(N3C[C@@H](O)CC3=O)ccc2c1=O (single isomer, unassigned) [Example 412], the “Cooperativity (alpha factor)” value [1, 3] was 34, the EC50 [2, 4] was 16 nM and the Efficiency ([2]; M2-GIRK1/4 reporter cells) was 98.0%.

CN(C)c1ccc2c(=O)c(C(=O)NC34CC5CC(CC(C5)C3)C4)cn(-c3ccc(F)cc3F)c2n1 [Example 36, 1-(2,4-Difluorophenyl)-7-(dimethylamino)-4-oxo-N-(tricyclo[3.3.1.1^3,7]dec-1-yl)-1,4-dihydro-1,8-naphthyridine-3-carboxamide] was tested, and the “Cooperativity (alpha factor)” value [1, 6] was 16, the EC50 [2, 7] was 19 nM and the Emax ([2]; read-out: Efficiency) was 96.1%.

With CC(C)CC(NC(=O)c1cn(-c2ccc(F)cc2F)c2nc(N(C)CCF)ccc2c1=O)C(F)(F)F (racemic) [Example 107, rac-1-(2,4-Difluorophenyl)-7-[(2-fluoroethyl)(methyl)amino]-4-oxo-N-[1,1,1-trifluoro-4-methylpentan-2-yl]-1,4-dihydro-1,8-naphthyridine-3-carboxamide] the “Cooperativity (alpha factor)” value [1, 6] was 14 and the EC50 [2, 7] was 57 nM.

For CN(C)c1ccc2c(=O)c(C(=O)NC(C(C)(C)C)C(F)(F)F)cn(-c3ccc(F)cc3F)c2n1 (stereo in doubt) [Example 132, 1-(2,4-Difluorophenyl)-7-(dimethylamino)-4-oxo-N-[(2S)-1,1,1-trifluoro-3,3-dimethylbutan-2-yl]-1,4-dihydro-1,8-naphthyridine-3-carboxamide], the “Cooperativity (alpha factor)” value [1, 6] was 7 and the EC50 [2, 7] was 10 nM.

With CN(C)c1ccc2c(=O)c(C(=O)NC34CC5CC(C3)C(F)(F)C(C5)C4)cn(-c3ccc(F)cc3F)c2n1 [Example 39, 1-(2,4-Difluorophenyl)-N-(4,4-difluorotricyclo[3.3.1.1^3,7]dec-1-yl)-7-(dimethylamino)-4-oxo-1,4-dihydro-1,8-naphthyridine-3-carboxamide] the “Cooperativity (alpha factor)” value [1, 6] was 14 and the EC50 [2, 7] was 88 nM.

In the case of CC[C@H](NC(=O)c1cn(-c2c(F)cc(F)cc2F)c2nc(N3C[C@@](C)(O)C[C@H]3C)ccc2c1=O)C(F)(F)F [Example 331, 7-[(2R,4S)-4-Hydroxy-2,4-dimethylpyrrolidin-1-yl]-4-oxo-N-[(2S)-1,1,1-trifluorobutan-2-yl]-1-(2,4,6-trifluorophenyl)-1,4-dihydro-1,8-naphthyridine-3-carboxamide], the “Cooperativity (alpha factor)” value [1, 6] is reported as 7 and the EC50 [2, 7] is reported as 33 nM.

For CC[C@@H](NC(=O)c1cn(-c2ccc(F)cc2F)c2nc(N3CC4CC4(O)C3)ccc2c1=O)C(F)(F)F (mixture of isomers) [Example 267, 1-(2,4-Difluorophenyl)-7-[1-hydroxy-3-azabicyclo[3.1.0]hex-3-yl]-4-oxo-N-[(2R)-1,1,1-trifluorobutan-2-yl]-1,4-dihydro-1,8-naphthyridine-3-carboxamide], the “Cooperativity (alpha factor)” value [1, 6] was 28 and the EC50 [2, 7] was 24 nM.

For O=C(NC12CC3CC(CC(C3)C1)C2)c1cn(-c2ccc(F)cc2F)c2nc(N3CCCC[C@H]3CO)ccc2c1=O [Example 15, 1-(2,4-Difluorophenyl)-7-[(2S)-2-(hydroxymethyl)piperidin-1-yl]-4-oxo-N-(tricyclo[3.3.1.1^3,7]dec-1-yl)-1,4-dihydro-1,8-naphthyridine-3-carboxamide], the “Cooperativity (alpha factor)” value [1, 6] was 8 and the EC50 [2, 7] was 85 nM.

For O=C(NC(c1c(F)cccc1F)C(F)(F)F)c1cn(-c2ccc(F)cc2F)c2nc(N3C[C@@H](O)CC3=O)ccc2c1=O (mixture of isomers) [Example 244, 1-(2,4-Difluorophenyl)-N-[1-(2,6-difluorophenyl)-2,2,2-trifluoroethyl]-7-[(4S)-4-hydroxy-2-oxopyrrolidin-1-yl]-4-oxo-1,4-dihydro-1,8-naphthyridine-3-carboxamide], the “Cooperativity (alpha factor)” value [1, 6] was 58 and the EC50 [2, 7] was 22 nM.
